Where two headings read alike, the source gives them in different places.
How the values were obtained:
Assay type in all cases: cell-based
MCF-7 = test: MTT cell viability assay, MCF-7
HepG2 = test: MTT cell viability assay, HepG2; details: read-out: IC50(μM) HepG2
Hela = test: MTT cell viability assay, Hela; details: 48 h
A549 = test: MTT cell viability assay, A549; details: read-out: IC50(μM) A549
[1] = Homo sapiens, MCF7, 48 h, read-out: IC50(μM) MCF-7, MTT, 48 h, MCF-7
[2] = Homo sapiens, HeLa, read-out: IC50(μM) Hela, MTT, 48 h, Hela
[3] = read-out: IC50(μM) MCF-7, MTT, 48 h, MCF-7
[4] = read-out: IC50(μM) Hela, MTT, Hela

| Compound | IC50 (MCF-7; [1]) | IC50 (HepG2; Homo sapiens, HepG2, 48 h) | IC50 (Hela; [2]) | IC50 (A549; Homo sapiens, A549, 48 h) | IC50 (MCF-7; [3]) | IC50 (HepG2; MTT, 48 h, HepG2) | IC50 (Hela; [4]) | IC50 (A549; MTT, 48 h, A549) |
| --- | --- | --- | --- | --- | --- | --- | --- | --- |
| COc1cc(OC)c(C(=O)/C=C/c2coc(Br)c2)c(OC)c1 [B8, (E)-3-(5-bromofuran-3-yl)-1-(2,4,6-trimethoxyphenyl)prop-2-en-1-one] | 48.8 ± 1.45 µM | 20.4 ± 1.52 µM | 49.8 ± 1.43 µM | > 100 µM | – | – | – | – |
| COc1cc(OC)c(C(=O)/C=C/c2ccc(Br)cc2)c(OC)c1 [B4, (E)-3-(4-bromophenyl)-1-(2,4,6-trimethoxyphenyl)prop-2-en-1-one] | 12.8 ± 0.64 µM | 13 ± 0.74 µM | 11.8 ± 0.86 µM | 19.8 ± 0.98 µM | – | – | – | – |
| COc1cc(OC)c(C(=O)/C=C/c2ccsc2)c(OC)c1 [B5, (E)-3-(thiophen-3-yl)-1-(2,4,6-trimethoxyphenyl)prop-2-en-1-one] | 35.8 ± 1.35 µM | 19.9 ± 1.31 µM | 37.2 ± 1.22 µM | 46.9 ± 1.15 µM | – | – | – | – |
| (E)-3-(3,4-dimethoxyphenyl)-1-(2,4,6-trimethoxyphenyl)prop-2-en-1-one [A3] | – | – | – | – | > 100 µM | 35.4 ± 1.37 µM | 71.5 ± 1.54 µM | > 100 µM |
| COc1cc(OC)c(C(=O)/C=C/c2cnc3ccccc3c2)c(OC)c1 [B10, (E)-3-(quinolin-3-yl)-1-(2,4,6-trimethoxyphenyl)prop-2-en-1-one] | 10.7 ± 0.62 µM | 8.92 ± 0.68 µM | 13.6 ± 0.83 µM | 15.5 ± 0.74 µM | – | – | – | – |
| COc1cc(OC)c(C(=O)/C=C/c2c(OC)cc(OC)c(C)c2OC)c(OC)c1 [A6, (E)-3-(2,4,6-trimethoxy-3-methylphenyl)-1-(2,4,6-trimethoxyphenyl)prop-2-en-1-one] | > 100 µM | > 100 µM | > 100 µM | 63.3 ± 1.41 µM | – | – | – | – |
| COc1cc(OC)c(C(=O)/C=C/C2=CSC(Br)=CC2)c(OC)c1 [B6, (E)-3-(6-bromo-4H-thiopyran-3-yl)-1-(2,4,6-trimethoxyphenyl)prop-2-en-1-one] | 26.3 ± 0.94 µM | 19.5 ± 0.59 µM | 18.9 ± 0.73 µM | 31.3 ± 0.63 µM | – | – | – | – |
| (E)-3-(3,5-dimethoxyphenyl)-1-(2,4,6-trimethoxyphenyl)prop-2-en-1-one [A4] | – | – | – | – | 32.4 ± 1.29 µM | 33.4 ± 1.37 µM | 32.3 ± 1.31 µM | 71.2 ± 1.56 µM |
| COc1cc(OC)c(C(=O)/C=C/c2ccc(-c3ccccc3)cc2)c(OC)c1 [B12, (E)-3-([1,1′-biphenyl]-4-yl)-1-(2,4,6-trimethoxyphenyl)prop-2-en-1-one] | 51.6 ± 1.23 µM | 38.1 ± 1.45 µM | 46.3 ± 1.07 µM | 44.5 ± 1.05 µM | – | – | – | – |
| (E)-3-(3-hydroxy-4-methoxyphenyl)-1-(2,4,6-trimethoxyphenyl)prop-2-en-1-one [A5] | – | – | – | – | 24.7 ± 0.94 µM | 40.7 ± 1.29 µM | 38.8 ± 1.21 µM | 70.9 ± 1.82 µM |
| O=c1[nH]cc(F)c(=O)[nH]1 [5-Fu, 5-fluorouracil, reference compound] | 55.2 ± 1.92 µM | 45.4 ± 1.35 µM | 43.8 ± 1.53 µM | 43.5 ± 1.22 µM | – | – | – | – |
| COc1cc(OC)c(C(=O)/C=C/c2cc3cc(F)ccc3[nH]c2=O)c(OC)c1 [B16, (E)-6-fluoro-3-(3-oxo-3-(2,4,6-trimethoxyphenyl)prop-1-en-1-yl)quinolin-2(1H)-one] | 12.6 ± 0.73 µM | 15.1 ± 0.62 µM | 18.1 ± 1.04 µM | 18.4 ± 0.65 µM | – | – | – | – |
| COc1cc(OC)c(C(=O)/C=C/c2cc3cc(C)ccc3[nH]c2=O)c(OC)c1 [B15, (E)-6-methyl-3-(3-oxo-3-(2,4,6-trimethoxyphenyl)prop-1-en-1-yl)quinolin-2(1H)-one] | 16 ± 0.56 µM | 18 ± 0.62 µM | 4.91 ± 0.3 µM | 20.4 ± 0.67 µM | – | – | – | – |
| COc1cc(OC)c(C(=O)/C=C/c2ccoc2)c(OC)c1 [B7, (E)-3-(furan-3-yl)-1-(2,4,6-trimethoxyphenyl)prop-2-en-1-one] | 82.9 ± 2.65 µM | 61.4 ± 1.34 µM | 81.3 ± 2.44 µM | 47.4 ± 2.12 µM | – | – | – | – |
| COc1cc(OC)c(C(=O)/C=C/c2ccccn2)c(OC)c1 [B1, (E)-3-(pyridin-2-yl)-1-(2,4,6-trimethoxyphenyl)prop-2-en-1-one] | 8.74 ± 0.63 µM | 10.8 ± 0.39 µM | 11.9 ± 0.44 µM | 10.6 ± 0.38 µM | – | – | – | – |
| COc1cc(OC)c(C(=O)/C=C/c2cccc(Br)n2)c(OC)c1 [B2, (E)-3-(6-bromopyridin-2-yl)-1-(2,4,6-trimethoxyphenyl)prop-2-en-1-one] | 7.83 ± 0.45 µM | 7.12 ± 0.42 µM | 6.48 ± 0.33 µM | 9.36 ± 0.72 µM | – | – | – | – |
| COc1cc(OC)c(C(=O)/C=C/c2ccccc2)c(OC)c1 [A7, (E)-3-phenyl-1-(2,4,6-trimethoxyphenyl)prop-2-en-1-one] | 57.8 ± 1.45 µM | 47.1 ± 1.42 µM | 46.5 ± 1.33 µM | 59.4 ± 1.72 µM | – | – | – | – |

Results, then the compound that gave them:

| IC50 (MCF-7; [1]) | IC50 (HepG2; Homo sapiens, HepG2, 48 h) | IC50 (Hela; [2]) | IC50 (A549; Homo sapiens, A549, 48 h) | IC50 (MCF-7; [3]) | IC50 (HepG2; MTT, 48 h, HepG2) | IC50 (Hela; [4]) | IC50 (A549; MTT, 48 h, A549) | Compound |
| --- | --- | --- | --- | --- | --- | --- | --- | --- |
| > 100 µM | > 100 µM | > 100 µM | 74.2 ± 1.84 µM | – | – | – | – | COc1cc(OC)c(C(=O)/C=C/c2ccc(OCc3ccccn3)cc2)c(OC)c1 [C6, (E)-3-(4-(pyridin-2-ylmethoxy)phenyl)-1-(2,4,6-trimethoxyphenyl)prop-2-en-1-one] |
| > 100 µM | > 100 µM | > 100 µM | > 100 µM | – | – | – | – | COc1cc(OC)c(C(=O)/C=C/c2ccc(OCc3ccccc3)cc2)c(OC)c1 [C4, (E)-3-(4-(benzyloxy)phenyl)-1-(2,4,6-trimethoxyphenyl)prop-2-en-1-one] |
| > 100 µM | > 100 µM | > 100 µM | > 100 µM | – | – | – | – | COc1cc(OC)c(C(=O)/C=C/c2ccc(OCc3cnc4ccccc4c3)cc2)c(OC)c1 [C9, (E)-3-(4-(quinolin-3-ylmethoxy)phenyl)-1-(2,4,6-trimethoxyphenyl)prop-2-en-1-one] |
| > 100 µM | > 100 µM | 22.6 ± 1.11 µM | 73.6 ± 1.17 µM | – | – | – | – | COc1cc(OC)c(C(=O)/C=C/c2ccc(OCC3CCCC3)cc2)c(OC)c1 [C2, (E)-3-(4-(cyclopentylmethoxy)phenyl)-1-(2,4,6-trimethoxyphenyl)prop-2-en-1-one] |
| > 100 µM | > 100 µM | > 100 µM | > 100 µM | – | – | – | – | COc1cc(OC)c(C(=O)/C=C/c2ccc(OCc3ccc4ccccc4c3)cc2)c(OC)c1 [C8, (E)-3-(4-(naphthalen-2-ylmethoxy)phenyl)-1-(2,4,6-trimethoxyphenyl)prop-2-en-1-one] |
| > 100 µM | > 100 µM | > 100 µM | > 100 µM | – | – | – | – | COc1cc(OC)c(C(=O)/C=C/c2ccc(OCc3ccc(Br)cc3)cc2)c(OC)c1 [C5, (E)-3-(4-((4-bromobenzyl)oxy)phenyl)-1-(2,4,6-trimethoxyphenyl)prop-2-en-1-one] |
| > 100 µM | 39.3 ± 1.55 µM | 45.5 ± 1.59 µM | > 100 µM | – | – | – | – | COc1cc(OC)c(C(=O)/C=C/c2ccc(OCC3CC3)cc2)c(OC)c1 [C1, (E)-3-(4-(cyclopropylmethoxy)phenyl)-1-(2,4,6-trimethoxyphenyl)prop-2-en-1-one] |
| 87.8 ± 2.7 µM | 51.1 ± 2.1 µM | 35 ± 1.17 µM | > 100 µM | – | – | – | – | COc1cc(OC)c(C(=O)/C=C/c2ccc(OCc3ccsc3)cc2)c(OC)c1 [C7, (E)-3-(4-(thiophen-3-ylmethoxy)phenyl)-1-(2,4,6-trimethoxyphenyl)prop-2-en-1-one] |
| > 100 µM | > 100 µM | > 100 µM | > 100 µM | – | – | – | – | COc1cc(OC)c(C(=O)/C=C/c2ccc(OCc3cc4ccccc4[nH]c3=O)cc2)c(OC)c1 [C10, (E)-3-((4-(3-oxo-3-(2,4,6-trimethoxyphenyl)prop-1-en-1-yl)phenoxy)methyl)quinolin-2(1H)-one] |

Reference: article PMC9845116 (Saudi Pharmaceutical Journal : SPJ, 2022)
